Laboratory results published in US12577235B2, “Crystalline form of CXCR2 antagonist and application thereof” (Shenzhen Optimum Biological Technology Co., Ltd, priority 2019, dated 2026).

Tested on: rat COPD model induced by smoking combined with lipopolysaccharide
Assay: Anti-inflammation effect in rat COPD model induced by smoking combined with lipopolysaccharide
Type: in vivo, SD rats
Method: Modeling: the animal model was prepared by exposing the rats to cigarette smoke once daily for 14 days. The rats were smoked for 90 min per day in 2 portions with a break of 10 min. 18 Marlboro cigarettes (with a tar content of 11 mg) were given each time. LPS was administered dropwise via airway at 200 μg/rat once weekly. The administration dropwise was performed on days 6 and 13 of smoke exposure (on the day of LPS administration dropwise, only LPS was administered dropwise for modeling without smoke exposure). • 2. Administration: an aqueous solution of 1% DMSO/20% PEG400/79% (HP-b-CD) was used as the vehicle, and the drugs were administrated intragastrically everyday at a volume of 5 mL/kg for 2 weeks. • 3. Endpoint: On day 15, pulmonary function test, sample collection, inflammatory cell count in bronchoalveolar lavage fluid, pathological analysis, and lung tissue MPO and MMP9 assay were carried out. Procedures of Pulmonary Function Test:
After the last smoking and modeling were finished, pulmonary function was tested for each group of animals on the second day, and pulmonary resistance and compliance were detected under stimulation of methacholine chloride at different doses. The animals were anesthetized by intraperitoneal injection with […] of 25% urethane. After the animals were deeply anesthetized, airway intubation was performed by separating airways, and meanwhile, jugular veins were separated. After breathing stably, the animals were put into a plethysmograph. Drug administration pipelines were inserted into the separated jugular veins. After the animals were in rest state for 1-2 min and the breathing curves were stable, then detection was started. Rats were administered with methacholine chloride at doses of 0, 0.0083, 0.025, 0.075, 0.225, 0.675 mg/kg by jugular vein intubation. The increase in airway resistance and decrease in pulmonary compliance were observed after each administration. After 1-2 min, the parameters returned to near the baseline of the previous concentration of methacholine chloride, and methacholine chloride of the next concentration was injected. After the detection was finished, subsequent alveolar lavage and sample collection were performed.
After the pulmonary function test was finished, the rats were sacrificed by cervical dislocation. After the animals were confirmed dead, the lungs were carefully separated, a lavage syringe was inserted into the main trachea and fixed with 2-0 silk thread. The right lung was ligated. 5 mL of low-temperature normal saline was slowly injected through the lavage syringe. The normal saline was slowly extracted after confirming that the normal saline was injected into the left lung. The operation was repeated twice. By the three lavages, a total of 15 mL of normal saline was injected for lavage. The obtained BALF was injected into a 15 mL centrifuge tube and preserved in a storage box at 4° C. for subsequent BALF cells counting.
After BALF was collected, the right lung which was not infused was taken off and weighted. The two upper lobes of the right lung were put into a cryopreservation tube, frozen in a freezer at −80° C. for later use. Lower lobe tissues were fixed in formalin.
1 mL of homogenously mixed BALF was added into 1 mL of a solution of 1% glacial acetic acid in normal saline. Cells were counted using a hemocytometer. The remaining lavage fluid was centrifuged at 1500 r/min for 10 min at 4° C. to give a cell mass. The cells were resuspended in 200 μL of normal saline, uniformly coated on a glass slide and stained by Wright-Giemsa stain. Macrophages, neutrophils and lymphocytes in a total of 200 cells were counted under a microscope, and the proportions of the cells was calculated. For lavage fluid collection, animals failing the lavage fluid collection were not summarized. […]

[1] = 10 mg/kg vs Danirixin at 30 mg/kg
[2] = 10 mg/kg, methacholine 0.025 mg/kg
[3] = 30 mg/kg vs Danirixin at 30 mg/kg
[4] = at various doses (3, 10, 30 mpk)

O=C(Nc1ccc(Cl)c(S(=O)(=O)[C@H]2CCCNC2)c1O)N[C@@H]1CCCc2cc(C(F)(F)F)oc21 [crystalline form A]
Pulmonary function improvement and anti-inflammatory effects (summary) (3 mg/kg): significant pulmonary function improvement and anti-inflammatory effects | Pulmonary resistance, effect relative to Danirixin (3 mg/kg and 10 mg/kg vs Danirixin at 30 mg/kg): comparable to that of Danirixin | MPO content in lung tissues, effect relative to Danirixin (3 mg/kg vs Danirixin at 30 mg/kg): comparable effect | Pulmonary resistance, methacholine-induced pulmonary function test (3 mg/kg, methacholine 0.025 mg/kg): significant effects in improving the pulmonary resistance | Lung tissue pathology score, effect relative to Danirixin [1]: comparable of that of Danirixin | MMP9 content in lung tissue, effect relative to Danirixin [1]: comparable of that of Danirixin | Number of leukocytes in BALF, effect relative to Danirixin [1]: comparable effect | Number of neutrophils in BALF, effect relative to Danirixin [1]: comparable effect | Pulmonary compliance, effect relative to Danirixin [1]: comparable to that of Danirixin | Pulmonary compliance, methacholine-induced pulmonary function test [2]: significant effect in improving the pulmonary compliance | Pulmonary resistance, methacholine-induced pulmonary function test [2]: significant effects in improving the pulmonary resistance | Lung tissue pathology score, effect relative to Danirixin [3]: superior effect | MMP9 content in lung tissue, effect relative to Danirixin [3]: superior effect | Lung tissue pathology score, dose dependence (3, 10, 30 mpk): improved the pathology score in a dose-dependent manner | MMP9 content in lung tissue, dose dependence (3, 10, 30 mpk): reduced the MMP9 content in lung tissue in a dose-dependent manner | Number of neutrophils in BALF, dose dependence (3, 10, 30 mpk): reduced the number of neutrophils in a dose-dependent manner | Anti-inflammatory effect (summary) (Danirixin 30 mpk, crystalline form A 3-30 mpk): significant anti-inflammatory effect | Pharmacodynamic effect compared with Danirixin (at a lower dose than Danirixin): equivalent pharmacodynamic effect | Pharmacodynamic effect compared with Danirixin (at the same dose as Danirixin): superior pharmacodynamic effect | MPO content in lung tissues [4]: significantly reduce the MPO content | Number of leukocytes in BALF [4]: significantly reduce the number of leukocytes | Number of neutrophils in BALF (down to 3 mg/kg): significant effect | Lung tissue pathology score (down to 10 mg/kg): significant effect | MMP9 content in lung tissue (down to 10 mg/kg): significant effect
